Drawing on the supplement of paper PMC10307832, this text covers relative viability for one cell line.

Common to all, as to assay: relative viability (nuclei count vs DMSO), 5 days (fraction); higher = more cells survive
Compound in experiment [1]: C(C(=O)C(=O)O)Br [Bromopyruvate] + Cc1nc(Nc2ncc(C(=O)Nc3c(C)cccc3Cl)s2)cc(N2CCN(CCO)CC2)n1 [Dasatinib] (partner 0.075 µM)
In short, it runs like this: (§1)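 Five library-drug doses in √10 steps were combined with a fixed anchor-drug dose, or a single drug was given alone, by pin tool to lung cancer cell lines in 1536-well plates the day after seeding. Nuclei were stained and counted after 5 days. Relative viability is the nuclei count in treated wells over that in vehicle wells, taken as the median of duplicate plates.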

Compound in experiment [2]: CC(O)(CS(=O)(=O)c1ccc(F)cc1)C(=O)Nc1ccc(C#N)c(C(F)(F)F)c1 [Bicalutamide] + CC1(C)CCC(c2ccc(Cl)cc2)=C(CN2CCN(c3ccc(C(=O)NS(=O)(=O)c4ccc(N[C@H](CCN5CCOCC5)CSc5ccccc5)c(S(=O)(=O)C(F)(F)F)c4)cc3)CC2)C1 [Navitoclax] (partner 0.5 µM)
The method in brief: as §1

Compound in the experiment “Bicalutamide + OSI-027”: CC(O)(CS(=O)(=O)c1ccc(F)cc1)C(=O)Nc1ccc(C#N)c(C(F)(F)F)c1 [Bicalutamide] + COc1cccc2cc(-c3nc([C@H]4CC[C@H](C(=O)O)CC4)n4ncnc(N)c34)[nH]c12 [OSI-027] (partner 0.5 µM)
In short, it runs like this:
as §1

Compound in experiment [3]: CC(O)(CS(=O)(=O)c1ccc(F)cc1)C(=O)Nc1ccc(C#N)c(C(F)(F)F)c1 [Bicalutamide] + CC(=O)Nc1cccc(-n2c(=O)n(C3CC3)c(=O)c3c(Nc4ccc(I)cc4F)n(C)c(=O)c(C)c32)c1 [Trametinib] (partner 0.02 µM)
The method in brief:
as §1

In the case of UMC-11, the relative viability in experiment [1] (first compound 1 µM) is 0.504; in experiment [1] (first compound 3.162 µM), 0.497; in experiment [1] (first compound 10 µM) it was 0.484; in experiment [1] (first compound 31.62 µM) it was 0.433; in experiment [1] (first compound 100 µM), 0.495; in experiment [2] (first compound 0.08 µM) it was 0.328. Moreover, the relative viability came to 0.25 in experiment [2] (first compound 0.253 µM); 0.281 in experiment [2] (first compound 0.8 µM); 0.279 in experiment [2] (first compound 2.53 µM); 0.505 with Bicalutamide + OSI-027 (first compound 0.08 µM); 0.461 with Bicalutamide + OSI-027 (first compound 0.253 µM); 0.591 in the experiment with Bicalutamide + OSI-027 (first compound 0.8 µM). The relative viability amounted to 0.395 in the experiment with Bicalutamide + OSI-027 (first compound 2.53 µM); 0.771 in experiment [3] (first compound 0.08 µM); 0.572 in experiment [3] (first compound 0.253 µM); 0.808 in experiment [3] (first compound 0.8 µM); 0.686 in experiment [3] (first compound 2.53 µM).
